Source: patent US10564168B2, “Method for treating male infertility based on NOX5 protein levels in sperm” (priority 2013, dated 2020)

Key:
[1] = tested on: human spermatozoa; experiment: Swim-up procedure, sperm motility; type: cell-based; conditions: 100 μM H2O2, 10 min
Text: (§1) Human semen samples were obtained from patient donors as a part of their clinical evaluation for fertility and reproductive health status. Portions of the samples not required for clinical analyses were de-identified and made available for the research protocols described. Under these conditions, the Institutional Review Board determined that the study is exempt from requirements for protocol approval and informed consent. Semen was collected by masturbation into sterile plastic containers and allowed to liquefy for at least 30 min before being processed. The samples were centrifuged (500 g, 15 min) to separate the seminal plasma from spermatozoa, and the pellet washed twice in phosphate-buffered normal saline pH 7 with 10 mM glucose (PBS-G). The spermatozoa were then counted in a hemocytometer chamber, resuspended in PBS-G at 10^9/ml, and used for superoxide assays. Sperm samples containing leukocytes detected by microscopic examination were excluded from the study. For selected experiments, motile spermatozoa were collected using the swim-up procedure (Vijayakumar et al. (1986) Arch. Androl. 17, 223-230; Parrish and Foote (1987) J. Androl. 8, 259-266). Briefly, the spermatozoa were sedimented by centrifugation (500 g, 15 min) and the tube was then incubated upright for 60 min at 37° C. Motile spermatozoa that progressed from the pellet into the supernatant (swim-up fraction) were collected by aspiration and counted.

[2] = tested on: human spermatozoa; experiment: Live cell confocal imaging with fluo4-AM and DHE; type: cell-based; conditions: H2O2, 10 min
Protocol: Spermatozoa suspended in PBS-G were plated on poly-L-lysine-coated glass coverslips (2×10^5 cells/ml) in PBS-G and loaded with 6 μM fluo4-AM and 300 nM dihydroethidine (DHE) (Molecular Probes, Carlsbad, Calif.) 10 min before imaging. Ca2+ influx and superoxide production were recorded using a confocal microscope (LSM 510; Carl Zeiss MicroImaging, Inc., Thornwood, N.Y.) with a 63×/1.4 NA plan-apochromat objective. Fluo-4 and DHE fluorescence emissions were excited with dual laser at 488/543 nm attenuated to avoid photobleaching and saturation. Detection was through a 545 nm long-pass dichroic mirror and a band-pass filter at 500-530 for fluo-4 and LP560 for DHE.

[3] = tested on: c-Abl; experiment: Phospho-c-Abl immunoblot and immunostaining of spermatozoa; type: cell-based, human; conditions: 100 μM H2O2, 10 min
Protocol: Spermatozoa resuspended in lysis buffer A (20 mM HEPES, pH 7.9; 350 mM NaCl; 0.5 mM EDTA; 0.5 mM EGTA; 1 mM MgCl2; 10% glycerol (v/v); 1% Nonidet P-40 (v/v); 10 mM NaF; 0.1 mM Na3VO4 [orthovanadate], 8 mM β-glycerophosphate; phosphatase inhibitor cocktail I and II [Sigma]; and protease inhibitor cocktail [Roche, Mannheim, Germany]) were sonicated 3 times for 5 sec each (20 watts). Lysates were cleared by centrifugation (10,000 g, 15 min). Aliquots containing 60-200 μg of protein were separated on 4-20% SDS polyacrylamide gradient gels and transferred to polyvinylidene difluoride (PVDF) membranes. […]
For immunohistological analyses, a drop of spermatozoa suspended in PBS-G was placed on a poly-L-lysine-coated glass slide, fixed in 4% (w/v) paraformaldehyde and permeabilized with 0.1% Triton X-100 (v/v) for 15 min at 4° C. […] Protein expression was visualized on a fluorescence microscope (Zeiss, Thornwood, N.Y.). […]

[4] = tested on: human spermatozoa; experiment: Superoxide assay, luminol-based Diogenes chemiluminescence, whole spermatozoa; type: cell-based
Text: as §1
(§2) Superoxide generation was measured using a luminol-based chemiluminescence assay (Diogenes reagent, National Diagnostics, Atlanta, Ga.). […] Spermatozoa were suspended at 10^9/ml in PBS-G. A 100 μl aliquot of the Diogenes reagent was mixed with 2×10^7 spermatozoa and incubated at 37° C. for 2-4 minutes. Superoxide generation was measured at baseline and after stimulation with ionomycin (1 μM), phorbol myristate acetate (PMA, 1 μg/ml), or H2O2 (100 μM and other concentrations as indicated). Chemiluminescence was measured every 30-60 sec for up to 10-15 min using a Clarity™ BioTek luminometer and an integration time of 5 sec.
Spermatozoa were pre-incubated for 5 min prior to the superoxide assay with 400 U/ml superoxide dismutase (SOD), 10 μM diphenylene iodonium (DPI), or 100 μM 1,2-Bis (2-aminophenoxy) ethane-N,N,N′,N′-tetraacetic acid (BAPTA). […] In some experiments, cells were pre-exposed to the NOX inhibitor 2-(2-chlorophenyl)-4-methyl-5-(pyridin-2-ylmethyl)-1H-pyrazolo[4,3-c]pyridine-3,6(2H,5H)-dione (GKT136901, 0.5 μM and other concentrations as indicated) for 10 min before exposure to either H2O2 or PMA.

[5] = tested on: K562/NOX5 cells; experiment: Superoxide production by K562/NOX5 cells; type: cell-based, human; conditions: 1 mM ZnCl2, K562/NOX5 cells
Protocol: as §2
Human leukemia cells stably transfected with an empty vector (K562 cells) or a vector encoding for NOX5 (K562/NOX5) were grown in RPMI medium supplemented with 10% (v/v) fetal bovine serum, plus 100 U/ml penicillin and 100 μg/ml streptomycin and the appropriate selection antibiotic. Cells in the logarithmic phase of growth were transfected with a mix of HV1 siRNA (Sigma) or with scrambled siRNA (Sigma) using the Neon system (Invitrogen, Carlsbad, Calif.) according to the manufacturer's recommendations. […]

Structure (SMILES)	effect on number of sperm in the swim-up fraction [1]	cytosolic Ca2+ levels and superoxide fluorescence [2]	phosphorylation of c-Abl [3]	dose dependence of induction of superoxide generation ([4]; 1 to 500 μM H2O2)	H2O2-stimulated superoxide production by hypermotile spermatozoa of the upper fraction after spontaneous swim-up ([4]; compared with pre-swim-up cells)	onset of superoxide burst after peroxide addition ([4]; human spermatozoa) [min]	time to maximal superoxide activity levels ([4]; human spermatozoa, varying among donors) [min]	induction of superoxide production by spermatozoa ([4]; ionomycin 1 μM, PMA 1 μg/ml or H2O2 100 μM, 10 min)	decrease of superoxide production stimulated by ionomycin, PMA, or H2O2 [5]	sensitivity of superoxide production induced by H2O2, PMA, or ionomycin ([4]; 1 mM ZnCl2, 5 min pre-incubation, human spermatozoa)
OO [H2O2]	increase in the number of sperm in the swim-up fraction	increases in cytosolic Ca2+ levels	induced the phosphorylation of c-Abl on tyrosine 245	dose-dependent	did not produce superoxide	1 to 2	5 to 10	induced a marked burst in superoxide production		
[Cl-].[Cl-].[Zn+2] [ZnCl2]									50-70%	Zn2+-sensitive
